Test results: patent publication US9730902B2, “Polyamine transport inhibitors as novel therapeutics” (University of Central Florida Research Foundation, Inc., priority 2009, dated 2017)
pIC50: −log10 of the molar value. Entries after “also recorded” stand apart in the source; their conditions may differ.

What was measured:
[1] = system: MiaPaca-2 pancreatic cancer; assay: Block of putrescine rescue of DFMO-treated cells; assay type: cell-based, human
Method: The MTD under DFMO treatment of 3c in this cell line is 1 μM and as such the therapy became toxic at 2 μM. If the therapy is not toxic to normal cells, then this therapy is also valid for concentrations above 1 μM. All treatments (DFMO, putrescine, and 3c) were dosed simultaneously and for a duration of 96 hours.

SW620 cells = assay: cells; settings: for Relative viability: human, 72 h
Method: The first assay implements the growth of mammalian cells in a 96 well plate format on tissue culture plates.
1.) The media contains a maximum of 2 mM aminoguanidine and a minimum of 0.25 mM aminoguanidine to prevent a cell culture artifact (i.e., degradation of native polyamines and PTI structures that contain terminal amine structures (e.g., trimer 3c) by bovine serum amine oxidases present in the cell culture media). As a general rule, aminoguanidine (AG) is not dosed at a concentration which induces 20% or more cytostasis in the cell line examined. This minimizes AG side-effects. All of the following treatments are begun 24 hours after seeding the cells.
3.) The maximum tolerated dose (MTD) of the PTI is determined by titrating it without the presence of DFMO or polyamine. The MTD is defined as the maximum concentration of the drug (e.g., PTI) that is shown to keep 100% of the cell population alive compared to the control ±10%.
(§1) This is defined as the “MTD under DFMO treatment.”
6.) The combination of DFMO, polyamine, and PTI are treated concomitantly after 24 hours of growth in a 96-well tissue culture treated plate. The duration of treatment is determined by step 2 for all three reagents. The concentration of DFMO is determined in step 2, the concentration of polyamine is determined in step 4 and the concentration of PTI is determined by step 3, the MTD. Note if the MTD of the PTI is altered by the presence of DFMO then the “MTD under DFMO treatment” is used as determined in step 6. The untreated control cells, DFMO only treatment, and DFMO+polyamine treatment, must be shown on the same plate as the experimental samples with PTI to ensure that these controls are working properly.
The first assay measures the ability of the new transport inhibitors to block rescue of DFMO-treated cells by putrescine (a native polyamine).

CHO-K1 cells = assay: Block of uptake of cytotoxic PAT probe Ant44 (cell rescue); assay type: cell-based, Chinese hamster; settings: for PAT inhibition: block of uptake of Ant44 at non-toxic concentrations; for rescue of cells from Ant44: inhibitor at 0.1 uM; for toxicity of inhibitor to cells: inhibitor at 100 uM in the presence of Ant44 (0.5 uM)
Method: FIG. 6. In CHO-K1 cells, cytotoxic compound Ant44 was dosed at 0.5 μM in the presence of 2 mM aminoguanidine and either Triamide 5c or Trimer 3c at varying concentrations then incubated for 48 hours. […] Note: 5c was able to rescue the CHO cells from Ant44 but required a higher dose of 5c (1 uM). Note: […] Note that all experiments performed contained a maximum of 2 mM aminoguanidine to prevent break-down of polyamine analogues in the serum. This cell culture artifact only arises due to bovine copper-dependent serum amine oxidases which are not present in humans and are therefore not of a concern. […] This is reflective upon their low Ki values observed in L1210 cells (Phanstiel reference).
FIG. 7. In CHO-K1 cells, the PAT-selective cytotoxic agent Ant44 was dosed at 0.5 μM in the presence of Trimer 3c at varying concentrations (in nM) and incubated for 48 hours. Note that 2 mM aminoguanidine was added to the media to blockade degradation by serum amine oxidases.
In this manner, the PTI (e.g. 1 uM) dosed at completely non-toxic concentrations was able to block the uptake of the toxic Ant44 compound (Ant44 dosed at its IC50 value, 0.5 uM). […] These experiments (FIGS. 6 and 7) were done in Chinese hamster ovary cells (CHO-K1) cells.

[2] = system: MiaPaca-2 pancreatic cancer; assay: MTD under DFMO treatment; assay type: cell-based
Excerpt: as §1

L3.6pl cells = assay: Block of spermidine rescue of DFMO-treated cells; assay type: cell-based, human
Method: FIG. 3 is a chart showing the block of spermidine rescue by trimer in a does dependent fashion in L3.6pl cells. […] This minimizes AG side-effects. […] The second assay measures the ability of the new transport inhibitor (the trimer 3c) to block rescue of DFMO-treated cells by spermidine. […] As shown below, the L3.6pl cells were dosed with 5 mM DFMO, which reduced their viability during the 48 hour incubation period to 60% of the control growth without DFMO (2nd column). However, these cells were rescued by the addition of exogenous spermidine (0.5 µM, 3rd column). […] However, in the presence of the trimer (i.e., the polyamine transport inhibitor 3c) we were able to block this rescue effect of spermidine (Spd) in a dose-dependent fashion (3c: 0.1 to 5 µM). For example, 3c at 2 µM in the presence of DFMO (5 mM)+spermidine (0.5 µM) gave 60% viability (7th column). Without the presence of the trimer, spermidine rescues the cells and one observes >90% viability (3rd column). The resulting data is in Table 1 and FIG. 3.

[3] = system: L3.6pl metastatic pancreatic cancer; assay: Block of putrescine rescue of DFMO-treated cells; assay type: cell-based, human
Method: The MTD of 3c in this cell line is 5 μM. All treatments (DFMO, putrescine, and 3c) were dosed simultaneously and for a duration of 72 hours.
The MTD of 3c in this cell line is 5 μM. All treatments (DFMO, putrescine, and 3c) were dosed simultaneously and for a duration of 48 hours.

[4] = system: L3.6pl metastatic pancreatic cancer; assay: Maximum tolerated dose (MTD) of the PTI; assay type: cell-based; settings: L3.6pl cell line
import of putrescine = assay: Selectivity of blocking import of native polyamines; assay type: cell-based; settings: putrescine versus spermidine and spermine, at the dosage used
HCT-116 = assay: Response of cell growth to DFMO; assay type: cell-based
RKO = assay: Response of cell growth to DFMO; assay type: cell-based
SW480 = assay: Response of cell growth to DFMO; assay type: cell-based
Panc-1 = assay: Response of cell growth to DFMO; assay type: cell-based

Which treatment effect ([1]; 0.5 μM of 3c, 0.5 μM of putrescine, DFMO, 96 hours) does the source give for NCCCCNCCCCNCc1cc(CNCCCCNCCCCN)cc(CNCCCCNCCCCN)c1 [3c, N-(4-Amino-butyl)-N′-(3,5-bis-{[4-(4-amino-butylamino)-butylamino]-methyl}-benzyl)-butane-1,4-diamine] here?
Its treatment effect is “incomplete but effective treatment”.

And the “concentration from which treatment is effective” value ([1]; competing with 0.5 μM of putrescine, with DFMO, 96 hours)?
The value was 1 µM.

And the Relative viability (SW620 cells; 0.1 uM)?
Its Relative viability is 100%.

And the Relative viability (SW620 cells; 0.5 uM)?
Its Relative viability is 75%.

What about the “concentration able to protect CHO-K1 cells from Ant44” value (CHO-K1 cells; Ant44 0.5 uM, 2 mM aminoguanidine, 48 hours, further titration) of the same compound?
The value was 80 nM.

And the PAT inhibition (CHO-K1 cells)?
Its PAT inhibition is “potent PAT inhibitors”.

What about the “rescue of cells from Ant44” value (CHO-K1 cells; Ant44 0.5 uM, 48 hours) of the same compound?
The value was “complete rescue”.

And the “toxicity of inhibitor to cells” value (CHO-K1 cells)?
Its value is “moderate toxicity”.

What about the “MTD under DFMO treatment” value ([2]; MiaPaca-2, 96 hours) of the same compound?
Its value is 1 µM.

And the “concentration at which the therapy became toxic” value ([2]; MiaPaca-2, with DFMO, 96 hours)?
The value was 2000 nM.

And the “% Viability” value (L3.6pl cells; 5 mM DFMO + 0.5 uM Spd + trimer 0.1, 48 hour)?
The value was 90%.

And the “% Viability” value (L3.6pl cells; 5 mM DFMO + 0.5 uM Spd + trimer 0.5, 48 hour)?
Its value is 88%.

What about the “% Viability” value (L3.6pl cells; 5 mM DFMO + 0.5 uM Spd + trimer 1, 48 hour) of the same compound?
The value was 73%.

And the “% Viability” value (L3.6pl cells; 5 mM DFMO + 0.5 uM Spd + trimer 2, 48 hour)?
The value was 60%.

And the “% Viability” value (L3.6pl cells; 5 mM DFMO + 0.5 uM Spd + trimer 3, 48 hour)?
The value was 53%.

And the “% Viability” value (L3.6pl cells; 5 mM DFMO + 0.5 uM Spd + trimer 5, 48 hour)?
Its value is 45%.

What about the “concentration from which treatment is effective” value ([3]; competing with 0.5 μM of putrescine, 48 hours) of the same compound?
The value was 0.5 µM.

And the “concentration from which treatment is effective” value ([3]; competing with 1 μM of putrescine, 72 hours)?
Its value is 1 µM.

And the MTD [4]?
Its MTD is 5 µM.

Which “dose required to rescue the CHO cells from Ant44” value (CHO-K1 cells; Ant44 0.5 uM, 48 hours) does the source give for NCCCCNCCCCNC(=O)c1cc(C(=O)NCCCCNCCCCN)cc(C(=O)NCCCCNCCCCN)c1 [5c, Benzene-1,3,5-tricarboxylic acid tris-{[4-(4-amino-butylamino)-butyl]-amide}] here?
The value was 1 µM.

And the PAT inhibition (CHO-K1 cells)?
The PAT inhibition was “potent PAT inhibitors”.

What about the “rescue of cells from Ant44” value (CHO-K1 cells; Ant44 0.5 uM, 48 hours) of the same compound?
The value was “unable to rescue”.

And the “toxicity of inhibitor to cells” value (CHO-K1 cells)?
Its value is “moderate toxicity”.

What about the “selectivity of blocking import of native polyamines” value (import of putrescine) of the same compound?
The value was “selectively blocks import of putrescine; also recorded: specific for putrescine”.

Which results are given for NCCCCNCCCCNCc1c2ccccc2cc2ccccc12 [Ant44, anthracen-9-ylmethyl-homospermidine conjugate, reference compound]?
viability relative to untreated CHO-K1 cells (CHO-K1 cells; Ant44 0.5 uM without PAT inhibitor, 2 mM aminoguanidine, 48 hours): 40%; pIC50 (CHO-K1 cells; cytotoxicity of Ant44, CHO-K1): 6.30

NCCCCN [Putrescine, putrescine, reference compound] was tested. Which viability at 1 µM (SW620 cells; Homo sapiens, SW-620, 72 h, read-out: Relative viability) did it give?
Its viability at 1 µM is 100%.

Which results are given for NCCCCNCCCN [spermidine, reference compound]?
% Viability (L3.6pl cells; 5 mM DFMO + 0.5 uM Spd, no trimer, 48 hour): > 90%; % Viability (L3.6pl cells; 5 mM DFMO + 0.5 uM Spd, no trimer, 48 hour, listed as Spd): 91%

What does the source list for difluoromethylornithine [DFMO]?
response to DFMO (HCT-116): respond to DFMO in a time dependent matter; DFMO reduction in cell growth ([1]; 48, 72 and 96 hours): time dependent; reduction in growth (SW620 cells; DFMO (1 mM), MTS assay): 50%; response to DFMO (RKO): respond to DFMO in a time dependent matter; response to DFMO (SW480): respond to DFMO in a time dependent matter; response to DFMO (Panc-1): respond to DFMO in a time dependent matter
